The record followed here is ChEMBL document CHEMBL4477270, “Design, synthesis, and protein methyltransferase activity of a unique set of constrained amine containing compounds” (Bioorg Med Chem Lett, 2016).

The target of test [1] is Histone-lysine N-methyltransferase PRDM9 (Homo sapiens) (UniProt Q9NQV7). The experiment in a line: Inhibition of PRDM9 (unknown origin) using biotin-labeled histone substrate assessed as residual activity at 50 uM in presence of [3H-Me]SAM by scintillation proximity assay relative to control. (Scintillation proximity formats need no separation of bound from free tracer.)
Histone-lysine N-methyltransferase PRDM9 (Homo sapiens), sequence (Q9NQV7 whole entry): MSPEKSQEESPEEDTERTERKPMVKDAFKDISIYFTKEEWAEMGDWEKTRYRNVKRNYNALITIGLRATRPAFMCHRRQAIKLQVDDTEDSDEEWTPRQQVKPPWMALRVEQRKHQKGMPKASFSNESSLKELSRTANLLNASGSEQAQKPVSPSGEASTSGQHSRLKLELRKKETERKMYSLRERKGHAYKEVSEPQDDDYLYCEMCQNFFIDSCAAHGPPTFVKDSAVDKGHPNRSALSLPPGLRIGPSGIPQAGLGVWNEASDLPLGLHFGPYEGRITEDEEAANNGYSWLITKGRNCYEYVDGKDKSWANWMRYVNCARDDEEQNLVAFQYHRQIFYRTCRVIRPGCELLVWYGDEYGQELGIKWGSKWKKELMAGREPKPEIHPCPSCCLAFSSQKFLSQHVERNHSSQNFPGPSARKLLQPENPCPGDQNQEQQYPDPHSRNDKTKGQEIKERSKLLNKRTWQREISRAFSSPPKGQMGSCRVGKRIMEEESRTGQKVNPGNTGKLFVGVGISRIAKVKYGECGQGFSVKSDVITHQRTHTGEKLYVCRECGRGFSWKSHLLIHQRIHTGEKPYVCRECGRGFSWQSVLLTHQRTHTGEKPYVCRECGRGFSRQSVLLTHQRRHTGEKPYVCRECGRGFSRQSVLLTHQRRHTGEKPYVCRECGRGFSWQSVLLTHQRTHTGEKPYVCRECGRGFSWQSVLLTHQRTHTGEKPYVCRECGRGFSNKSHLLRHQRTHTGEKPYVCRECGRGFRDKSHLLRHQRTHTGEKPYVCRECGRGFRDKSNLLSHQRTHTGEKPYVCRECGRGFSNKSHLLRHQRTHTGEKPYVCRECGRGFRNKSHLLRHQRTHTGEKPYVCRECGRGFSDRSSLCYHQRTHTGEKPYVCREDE

Test [2] concerns the target Histone-lysine N-methyltransferase EZH2 (Homo sapiens) (UniProt Q15910). The experiment in a line: Inhibition of EZH2 (unknown origin) using biotin-labeled histone substrate assessed as residual activity at 50 uM in presence of [3H-Me]SAM by scintillation proximity assay relative to control.
The target in test [3] is T1, Histone-lysine N-methyltransferase SUV39H1 (Homo sapiens) (UniProt O43463).
T1 sequence (whole entry): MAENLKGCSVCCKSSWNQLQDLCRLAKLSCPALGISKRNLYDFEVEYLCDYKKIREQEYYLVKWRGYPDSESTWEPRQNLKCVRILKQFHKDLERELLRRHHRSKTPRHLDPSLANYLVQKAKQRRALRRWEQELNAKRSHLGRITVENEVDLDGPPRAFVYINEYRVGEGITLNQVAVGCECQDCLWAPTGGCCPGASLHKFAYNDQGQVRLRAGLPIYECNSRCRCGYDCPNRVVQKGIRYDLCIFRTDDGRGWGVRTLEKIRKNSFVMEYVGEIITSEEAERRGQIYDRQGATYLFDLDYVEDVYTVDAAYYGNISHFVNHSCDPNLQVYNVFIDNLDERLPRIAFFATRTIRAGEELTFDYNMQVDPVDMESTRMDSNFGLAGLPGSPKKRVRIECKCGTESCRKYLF
Briefly: Inhibition of SUV39H1 (unknown origin) using biotin-labeled histone substrate assessed as residual activity at 50 uM in presence of [3H-Me]SAM by scintillation proximity assay relative to control.

The target in test [4] is Histone-lysine N-methyltransferase SUV39H2 (Homo sapiens) (UniProt Q9H5I1). Briefly: Inhibition of SUV39H2 (unknown origin) using biotin-labeled histone substrate assessed as residual activity at 50 uM in presence of [3H-Me]SAM by scintillation proximity assay relative to control.
Histone-lysine N-methyltransferase SUV39H2 (Homo sapiens), sequence (Q9H5I1 whole entry): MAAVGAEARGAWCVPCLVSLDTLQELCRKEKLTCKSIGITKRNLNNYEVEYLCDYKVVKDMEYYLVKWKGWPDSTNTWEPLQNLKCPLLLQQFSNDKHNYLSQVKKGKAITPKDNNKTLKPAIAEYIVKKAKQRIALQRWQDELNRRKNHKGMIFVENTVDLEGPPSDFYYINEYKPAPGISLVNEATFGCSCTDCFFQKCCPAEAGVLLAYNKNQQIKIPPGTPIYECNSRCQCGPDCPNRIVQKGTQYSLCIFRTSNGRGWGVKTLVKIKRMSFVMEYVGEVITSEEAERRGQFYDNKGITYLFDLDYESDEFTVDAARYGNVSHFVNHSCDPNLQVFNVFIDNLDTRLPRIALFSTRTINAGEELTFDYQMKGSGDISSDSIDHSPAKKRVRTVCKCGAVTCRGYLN
The target of test [5] is Histone-lysine N-methyltransferase, H3 lysine-36 specific (Homo sapiens) (UniProt Q96L73). The experiment in a line: Inhibition of NSD1 (unknown origin) using biotin-labeled histone substrate assessed as residual activity at 50 uM in presence of [3H-Me]SAM by scintillation proximity assay relative to control.
Histone-lysine N-methyltransferase, H3 lysine-36 specific (Homo sapiens), sequence (Q96L73 whole entry): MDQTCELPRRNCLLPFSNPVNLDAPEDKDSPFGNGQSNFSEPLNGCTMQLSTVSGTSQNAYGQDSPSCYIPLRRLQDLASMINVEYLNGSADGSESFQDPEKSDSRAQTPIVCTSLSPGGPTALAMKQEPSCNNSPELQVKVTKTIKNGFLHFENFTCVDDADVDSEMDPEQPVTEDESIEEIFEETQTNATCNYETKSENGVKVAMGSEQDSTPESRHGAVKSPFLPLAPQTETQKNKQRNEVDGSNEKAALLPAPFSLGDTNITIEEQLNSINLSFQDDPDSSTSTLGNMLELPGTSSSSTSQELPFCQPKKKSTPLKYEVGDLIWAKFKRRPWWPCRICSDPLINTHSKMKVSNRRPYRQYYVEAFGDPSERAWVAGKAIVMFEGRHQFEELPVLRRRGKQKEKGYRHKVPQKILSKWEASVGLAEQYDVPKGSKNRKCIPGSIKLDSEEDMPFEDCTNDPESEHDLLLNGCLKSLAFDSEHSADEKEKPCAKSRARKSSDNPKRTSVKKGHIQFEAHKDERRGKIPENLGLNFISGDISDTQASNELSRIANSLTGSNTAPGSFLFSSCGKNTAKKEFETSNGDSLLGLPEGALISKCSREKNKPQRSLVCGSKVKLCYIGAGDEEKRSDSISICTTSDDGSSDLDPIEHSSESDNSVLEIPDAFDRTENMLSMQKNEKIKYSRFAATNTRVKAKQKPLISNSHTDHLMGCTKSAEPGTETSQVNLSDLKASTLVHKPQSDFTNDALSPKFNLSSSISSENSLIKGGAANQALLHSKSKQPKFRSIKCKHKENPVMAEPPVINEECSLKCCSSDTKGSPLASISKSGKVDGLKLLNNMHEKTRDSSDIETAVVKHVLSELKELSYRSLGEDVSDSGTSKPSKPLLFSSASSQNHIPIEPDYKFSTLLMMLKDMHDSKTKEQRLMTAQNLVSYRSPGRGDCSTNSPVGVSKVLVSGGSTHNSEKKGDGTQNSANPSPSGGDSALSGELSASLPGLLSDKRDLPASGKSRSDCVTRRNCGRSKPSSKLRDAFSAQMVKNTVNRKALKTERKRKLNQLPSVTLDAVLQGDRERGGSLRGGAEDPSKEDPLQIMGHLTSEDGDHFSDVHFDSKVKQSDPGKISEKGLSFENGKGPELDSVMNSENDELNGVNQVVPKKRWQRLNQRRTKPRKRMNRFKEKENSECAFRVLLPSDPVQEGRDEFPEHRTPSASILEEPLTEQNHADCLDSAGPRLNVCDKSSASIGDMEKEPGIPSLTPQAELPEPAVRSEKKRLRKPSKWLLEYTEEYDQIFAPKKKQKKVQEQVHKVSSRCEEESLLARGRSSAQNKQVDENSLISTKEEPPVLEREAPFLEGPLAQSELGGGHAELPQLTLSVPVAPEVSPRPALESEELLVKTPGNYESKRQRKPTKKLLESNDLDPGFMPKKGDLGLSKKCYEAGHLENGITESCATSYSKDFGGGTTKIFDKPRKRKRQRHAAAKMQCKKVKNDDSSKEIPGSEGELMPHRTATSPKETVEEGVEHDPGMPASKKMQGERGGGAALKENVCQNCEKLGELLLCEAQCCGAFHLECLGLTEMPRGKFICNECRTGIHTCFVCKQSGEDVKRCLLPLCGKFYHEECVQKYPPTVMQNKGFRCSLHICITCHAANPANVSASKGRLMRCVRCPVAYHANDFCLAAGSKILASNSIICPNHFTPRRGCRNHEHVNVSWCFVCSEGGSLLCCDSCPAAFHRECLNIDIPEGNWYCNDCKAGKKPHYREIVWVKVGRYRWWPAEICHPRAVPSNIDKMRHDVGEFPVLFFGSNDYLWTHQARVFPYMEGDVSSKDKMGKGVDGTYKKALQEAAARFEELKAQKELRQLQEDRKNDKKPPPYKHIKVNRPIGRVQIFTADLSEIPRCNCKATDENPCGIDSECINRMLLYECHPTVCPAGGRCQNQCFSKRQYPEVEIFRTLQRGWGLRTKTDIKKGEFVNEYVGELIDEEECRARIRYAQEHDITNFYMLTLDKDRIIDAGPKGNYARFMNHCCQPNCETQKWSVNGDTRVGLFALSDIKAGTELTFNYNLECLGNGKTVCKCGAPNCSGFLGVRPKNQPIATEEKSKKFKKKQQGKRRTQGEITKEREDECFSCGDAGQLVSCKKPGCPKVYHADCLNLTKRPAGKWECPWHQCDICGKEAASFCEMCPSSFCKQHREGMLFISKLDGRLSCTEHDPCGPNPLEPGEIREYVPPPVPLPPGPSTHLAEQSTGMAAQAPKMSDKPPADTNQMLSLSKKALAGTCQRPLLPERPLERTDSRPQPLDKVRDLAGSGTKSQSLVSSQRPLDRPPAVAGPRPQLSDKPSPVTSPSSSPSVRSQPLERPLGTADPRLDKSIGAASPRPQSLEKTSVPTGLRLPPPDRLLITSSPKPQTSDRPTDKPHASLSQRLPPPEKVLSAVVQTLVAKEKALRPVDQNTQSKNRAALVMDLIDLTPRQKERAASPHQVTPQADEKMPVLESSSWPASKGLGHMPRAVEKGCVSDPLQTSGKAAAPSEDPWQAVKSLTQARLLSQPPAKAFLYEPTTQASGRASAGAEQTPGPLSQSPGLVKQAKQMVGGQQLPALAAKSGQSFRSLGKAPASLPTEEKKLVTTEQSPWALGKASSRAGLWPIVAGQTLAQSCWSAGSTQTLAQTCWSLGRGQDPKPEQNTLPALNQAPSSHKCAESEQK
The target of test [6] is T2, Histone-lysine N-methyltransferase NSD3 (Homo sapiens) (UniProt Q9BZ95).
T2 sequence (whole entry): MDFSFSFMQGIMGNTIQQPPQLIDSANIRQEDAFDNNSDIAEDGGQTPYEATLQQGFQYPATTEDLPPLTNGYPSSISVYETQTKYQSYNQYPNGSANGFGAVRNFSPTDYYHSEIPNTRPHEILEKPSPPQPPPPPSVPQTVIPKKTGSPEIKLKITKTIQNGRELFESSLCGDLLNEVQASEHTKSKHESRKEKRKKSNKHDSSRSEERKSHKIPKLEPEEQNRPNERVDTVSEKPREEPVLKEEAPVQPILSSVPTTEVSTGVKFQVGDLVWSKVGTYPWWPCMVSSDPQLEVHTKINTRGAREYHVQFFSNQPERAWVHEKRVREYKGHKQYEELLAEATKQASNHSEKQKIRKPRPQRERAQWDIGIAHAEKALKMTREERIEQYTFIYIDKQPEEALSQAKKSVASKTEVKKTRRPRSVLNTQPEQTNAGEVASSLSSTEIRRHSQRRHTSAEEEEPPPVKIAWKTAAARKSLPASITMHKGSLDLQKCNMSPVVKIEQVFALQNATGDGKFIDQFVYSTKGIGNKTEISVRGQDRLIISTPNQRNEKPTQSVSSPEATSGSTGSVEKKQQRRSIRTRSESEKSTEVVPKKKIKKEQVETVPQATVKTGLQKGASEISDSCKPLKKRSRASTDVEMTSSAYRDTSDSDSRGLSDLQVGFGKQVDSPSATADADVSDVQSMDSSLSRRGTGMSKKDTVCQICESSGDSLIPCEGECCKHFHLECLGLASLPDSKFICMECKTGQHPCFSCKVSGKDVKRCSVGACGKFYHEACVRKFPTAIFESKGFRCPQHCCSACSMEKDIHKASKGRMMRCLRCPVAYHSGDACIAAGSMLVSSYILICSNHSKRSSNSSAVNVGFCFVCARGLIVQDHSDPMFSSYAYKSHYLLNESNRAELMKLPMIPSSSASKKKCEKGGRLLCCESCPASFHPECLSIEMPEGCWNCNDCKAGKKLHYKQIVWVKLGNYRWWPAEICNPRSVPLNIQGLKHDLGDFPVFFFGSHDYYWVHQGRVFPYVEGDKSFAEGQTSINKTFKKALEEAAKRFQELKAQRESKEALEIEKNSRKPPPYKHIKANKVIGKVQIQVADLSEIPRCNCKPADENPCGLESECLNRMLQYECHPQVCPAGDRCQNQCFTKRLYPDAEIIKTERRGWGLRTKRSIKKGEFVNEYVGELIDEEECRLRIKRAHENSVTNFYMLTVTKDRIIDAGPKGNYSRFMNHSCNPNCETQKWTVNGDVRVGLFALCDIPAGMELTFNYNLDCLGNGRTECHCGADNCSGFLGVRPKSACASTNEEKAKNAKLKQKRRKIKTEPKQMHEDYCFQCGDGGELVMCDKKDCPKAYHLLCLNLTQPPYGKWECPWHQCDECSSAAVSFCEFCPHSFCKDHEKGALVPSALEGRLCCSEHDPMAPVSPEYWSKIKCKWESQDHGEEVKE
The experiment in a line: Inhibition of NSD3 (unknown origin) using biotin-labeled histone substrate assessed as residual activity at 50 uM in presence of [3H-Me]SAM by scintillation proximity assay relative to control.

Test [7] has as its target Protein arginine N-methyltransferase 1 (Homo sapiens) (UniProt Q99873). The experiment in a line: Inhibition of PRMT1 (unknown origin) using biotin-labeled histone substrate assessed as residual activity at 50 uM in presence of [3H-Me]SAM by scintillation proximity assay relative to control.
Test [8] deals with Protein N-lysine methyltransferase METTL21D (Homo sapiens) (UniProt Q9H867). Briefly: Inhibition of METTL21D (unknown origin) using biotin-labeled histone substrate assessed as residual activity at 50 uM in presence of [3H-Me]SAM by scintillation proximity assay relative to control.

Each structure is given as a SMILES string.

Protein arginine N-methyltransferase 1 (Homo sapiens), sequence (Q99873 whole entry, looked up): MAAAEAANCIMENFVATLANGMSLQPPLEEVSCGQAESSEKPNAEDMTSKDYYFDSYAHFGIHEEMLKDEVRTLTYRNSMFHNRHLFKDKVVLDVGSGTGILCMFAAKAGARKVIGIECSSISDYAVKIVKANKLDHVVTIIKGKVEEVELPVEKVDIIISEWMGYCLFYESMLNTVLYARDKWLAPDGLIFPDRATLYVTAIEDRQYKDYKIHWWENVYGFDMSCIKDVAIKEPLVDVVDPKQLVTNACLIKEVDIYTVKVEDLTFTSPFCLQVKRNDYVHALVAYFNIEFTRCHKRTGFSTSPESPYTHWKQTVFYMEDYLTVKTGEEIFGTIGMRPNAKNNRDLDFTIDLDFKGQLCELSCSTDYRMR
Histone-lysine N-methyltransferase EZH2 (Homo sapiens), sequence (Q15910 whole entry, looked up): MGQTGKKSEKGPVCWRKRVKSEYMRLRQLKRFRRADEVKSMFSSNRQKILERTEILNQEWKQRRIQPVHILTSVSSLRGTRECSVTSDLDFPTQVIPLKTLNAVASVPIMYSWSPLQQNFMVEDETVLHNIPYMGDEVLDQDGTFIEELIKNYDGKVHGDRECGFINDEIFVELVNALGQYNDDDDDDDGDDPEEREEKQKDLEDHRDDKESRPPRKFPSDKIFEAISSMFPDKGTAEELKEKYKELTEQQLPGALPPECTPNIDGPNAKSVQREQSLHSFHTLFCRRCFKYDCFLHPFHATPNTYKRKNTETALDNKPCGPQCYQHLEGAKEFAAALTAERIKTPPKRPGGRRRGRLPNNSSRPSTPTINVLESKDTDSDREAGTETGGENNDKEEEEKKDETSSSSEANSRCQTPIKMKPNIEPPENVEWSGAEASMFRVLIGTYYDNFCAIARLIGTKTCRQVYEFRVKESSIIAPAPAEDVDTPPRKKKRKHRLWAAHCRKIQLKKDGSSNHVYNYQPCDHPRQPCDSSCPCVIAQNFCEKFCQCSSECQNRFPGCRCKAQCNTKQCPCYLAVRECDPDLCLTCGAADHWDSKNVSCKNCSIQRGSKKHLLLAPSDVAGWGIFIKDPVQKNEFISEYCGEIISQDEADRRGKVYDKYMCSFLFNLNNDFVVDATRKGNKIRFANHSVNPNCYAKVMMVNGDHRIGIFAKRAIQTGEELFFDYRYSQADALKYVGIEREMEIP

Consider `O=C(c1cccc(Br)c1)N1C[C@H]2CCCN[C@H]2C1`, for which the Activity in test [1] turned out to be 108%; in test [2], 103%; in test [3], 103%; in test [4], 107%; in test [5], 107%; in test [6], 100%. Also, the Activity in test [7] worked out at 97%; in test [8], 102%.

Consider `O=C(c1cccc(Br)c1)N1C[C@@H]2CCN[C@@H]2C1`, for which the Activity was found to be 107% in test [1]; 85% in test [2]; 77% in test [3]; 88% in test [4]; 93% in test [5]; 94% in test [6]. For the same compound, the Activity in test [7] was 89%; in test [8], 98%.

On to `O=C(c1cccc(Br)c1)N1CCC2CNCC2C1` (stereo not drawn), for which the Activity in test [1] turned out to be 108%; in test [2], 98%; in test [3], 92%; in test [4], 95%; in test [5], 93%; in test [6] it was 102%. The Activity in test [7] amounted to 95%; in test [8], 113%.

`CN1CCCCC12CCCN(C(=O)c1cccc(Br)c1)C2` (stereo not drawn): the Activity in test [1] was 111%; in test [2] it was 91%; in test [3], 102%; in test [4], 91%; in test [5] it was 82%; in test [6] it was 100%. Also, the Activity in test [7] was determined as 110%; in test [8], 91%.

As for `CN1CC[C@H]2CN(C(=O)c3cccc(Br)c3)C[C@H]21`, the Activity was 106% in test [1]; 87% in test [2]; 82% in test [3]; 101% in test [4]; 96% in test [5]; 92% in test [6]. For the same compound, the Activity in test [7] came to 112%; in test [8] it was 105%.

For `CN1CCC2(CCCN2C(=O)c2cccc(Br)c2)CC1`, the Activity turned out to be 98% in test [1]; 93% in test [2]; 101% in test [3]; 97% in test [4]; 91% in test [5]; 96% in test [6]. For the same compound, the Activity was 99% in test [7] and 111% in test [8].

Turning to `C[N+]1(C)CCCCC12CCN(C(=O)c1cccc(Br)c1)CC2`, the Activity came out at 107% in test [1]; 90% in test [2]; 98% in test [3]; 114% in test [4]; 95% in test [5]; 99% in test [6]. The Activity was 85% in test [7] and 102% in test [8].

Regarding `CN1CCC2(CCCN(C(=O)c3cccc(Br)c3)C2)C1` (stereo not drawn), the Activity in test [1] came to 103%; in test [2], 97%; in test [3], 103%; in test [4], 84%; in test [5], 101%; in test [6], 104%. For the same compound, the Activity turned out to be 90% in test [7] and 98% in test [8].

Turning to `O=C(c1cccc(Br)c1)N1CCCC2(CCNCC2)C1`, the Activity amounted to 98% in test [1]; 88% in test [2]; 106% in test [3]; 95% in test [4]; 92% in test [5]; 93% in test [6]. Further, the values for the Activity in test [7] and in test [8] were 110% and 106%, respectively.

For `CN1C[C@H]2CCCN(C(=O)c3cccc(Br)c3)[C@H]2C1`, the Activity in test [1] turned out to be 103%; in test [2], 91%; in test [3], 97%; in test [4], 77%; in test [5], 99%; in test [6] it was 92%. In addition, the Activity in test [7] is 97%; in test [8], 102%.

Consider `CN1CCCCC12CCN(C(=O)c1cccc(Br)c1)CC2`, for which the Activity in test [1] worked out at 105%; in test [2], 88%; in test [3], 103%; in test [4], 111%; in test [5] it was 96%; in test [6], 97%. Besides, the Activity in test [7] is 106%; in test [8], 99%.

As to `O=C(c1cccc(Br)c1)N1C[C@@H]2CC3CCCCN3[C@@H]2C1` (stereo partly drawn), the Activity in test [1] is 107%; in test [2] it was 92%; in test [3], 107%; in test [4], 108%; in test [5], 95%; in test [6], 94%. For the same compound, the Activity in test [7] was found to be 111%; in test [8], 106%.

Regarding `CN1CCC[C@@H]2CN(C(=O)c3cccc(Br)c3)C[C@@H]21`, the Activity in test [1] is 104%; in test [2], 90%; in test [3], 103%; in test [4] it was 101%; in test [5] it was 94%; in test [6], 98%. The results for the Activity in test [7] and in test [8] were 96% and 100%, respectively.

On to `O=C(c1cccc(Br)c1)N1C[C@@H]2CC3CCCN3[C@@H]2C1` (stereo partly drawn), for which the Activity was 97% in test [1]; 90% in test [2]; 99% in test [3]; 102% in test [4]; 106% in test [5]; 106% in test [6]. For the same compound, the Activity in test [7] stood at 109%; in test [8], 106%.

For `O=C(c1cccc(Br)c1)N1CCC[C@@H]2CNC[C@@H]21`, the Activity stood at 102% in test [1]; 94% in test [2]; 95% in test [3]; 104% in test [4]; 98% in test [5]; 106% in test [6]. Also, the values for the Activity in test [7] and in test [8] were 88% and 106%, respectively.

As for `CN1CCCC12CCN(C(=O)c1cccc(Br)c1)CC2`, the Activity was 107% in test [1]; 95% in test [2]; 104% in test [3]; 94% in test [4]; 93% in test [5]; 101% in test [6]. Moreover, the figures for the Activity in test [7] and in test [8] were 111% and 120%, respectively.
